Reference: patent US5140039A, “Aminomethyl-thiochroman compounds” (Abbott Laboratories, priority 1991, dated 1992)
Where a name gives a salt, the structure may show the parent alone.

How the values were obtained:
alpha-2-receptor = assay: radioligand binding, [3H]-rauwolscine, rat cerebral cortices; settings: for Ki: rat cerebral cortices, [3H]-rauwolscine; for alpha-2-Selectivity Ki alpha-1/Ki alpha-2: ratio Ki alpha-1/Ki alpha-2
Protocol: (§1) The compounds were assessed for alpha-adrenergic receptor subtype selectivity by use of radioligand binding techniques as described previously (DeBernardis et.al. J. Med. Chem. 28 1398 (1985)). Affinity for the alpha-1-receptor was assessed using rat liver homogenates and the radioligand [^3 H]-prazosin; whereas for the alpha-2-receptor, rat cerebral cortices and the radioligand [^3 H]-rauwolscine were utilized. Results obtained from the binding studies are shown in Table 1 for a representative sample of compounds disclosed herein.

alpha-1-receptor = molecular target: T1, alpha-1-receptor (Rattus norvegicus, UniProt P15823); assay: radioligand binding, [3H]-prazosin, rat liver homogenates
T1 construct: rat liver homogenates; from tissue; host or cells: rat liver homogenate
T1 sequence (P15823 1-515): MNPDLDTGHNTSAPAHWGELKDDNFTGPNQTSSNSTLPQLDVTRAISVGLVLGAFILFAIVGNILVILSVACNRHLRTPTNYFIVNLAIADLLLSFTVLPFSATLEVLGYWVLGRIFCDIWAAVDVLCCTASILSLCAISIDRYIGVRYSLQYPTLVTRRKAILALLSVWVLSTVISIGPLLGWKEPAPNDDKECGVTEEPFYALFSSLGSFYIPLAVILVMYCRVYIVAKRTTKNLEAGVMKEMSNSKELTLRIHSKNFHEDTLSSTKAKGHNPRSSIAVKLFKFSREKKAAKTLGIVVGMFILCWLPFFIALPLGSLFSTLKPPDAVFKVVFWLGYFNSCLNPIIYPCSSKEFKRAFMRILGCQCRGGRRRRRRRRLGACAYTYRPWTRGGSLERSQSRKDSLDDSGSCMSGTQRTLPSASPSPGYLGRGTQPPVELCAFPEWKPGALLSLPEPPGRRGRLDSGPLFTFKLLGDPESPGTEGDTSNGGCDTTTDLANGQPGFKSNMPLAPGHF
Protocol: as §1

| Structure (SMILES) | Ki (alpha-2-receptor) | alpha-2-Selectivity Ki alpha-1/Ki alpha-2 (alpha-2-receptor) | Ki (alpha-1-receptor) |
| --- | --- | --- | --- |
| COc1ccc2c(c1)OCCC2CN(C)CCc1cccc(Cl)c1 (stereo not drawn) [Example 4, 4-((N-Methylamino)methyl-N-(2-(m-chlorophenyl)ethyl))-7-methoxy chroman hydrochloride] | 24 nM | 11 | 260 nM |
| CCN(CCc1cccc(Cl)c1)CC1CCOc2cc(OC)ccc21 (stereo not drawn) [Example 6, 4-((N-Ethylamino)methyl-N-(2-(m-chlorophenyl)ethyl))-7-methoxy chroman hydrochloride] | 34 nM | 33 | 1140 nM |
| COc1ccc2c(c1)OCCC2CN(C)CCc1cccs1 (stereo not drawn) [Example 7, 4-((N-Methylamino)methyl-N-(2-(2-thienyl)ethyl))-7-methoxy chroman hydrochloride] | 10 nM | 59 | 590 nM |
| COc1ccc2c(c1OC)SCCC2CN(C)CCc1cccs1 (stereo not drawn) [Example 13, 4-((N-Methylamino)methyl-N-(2-(2-thienyl)ethyl))-7,8-dimethoxy thiochroman hydrochloride] | 3 nM | 32 | 96 nM |
| COc1ccc2c(c1OC)OCCC2CN(C)CCc1cccc(F)c1 (stereo not drawn) [Example 25, 4-(N-Methylamino)methyl-N-(2-(m-fluorophenyl)ethyl))-7,8-dimethoxy chroman hydrochloride] | 3 nM | 183 | 550 nM |
| COc1ccc2c(c1OC)OCCC2CN(C)CCc1cccs1 (stereo not drawn) [Example 26, 4-((N-Methylamino)methyl-N-(2-(2-thienyl)ethyl))-7,8-dimethoxy chroman hydrochloride] | 5.8 nM | 1724 | 10000 nM |
| CCN(CCc1cccs1)CC1CCOc2c1ccc(OC)c2C (stereo not drawn) [Example 28, 4-((N-Ethylamino)methyl-N-(20(2-thienyl)ethyl)-7-methoxy-8-methylchroman hydrochloride] | 34 nM | 29 | 1000 nM |
